Data on one compound can be found in US4916122A, “3'-Azido-2',3'-dideoxyuridine anti-retroviral composition” (University of Georgia Research Foundation, Inc., priority 1987, dated 1990).

pKi: −log10 of the molar value.

Test [1] has as its target T1, HIV RT (Human immunodeficiency virus type 1 group M subtype B, UniProt P03367).
T1 construct: HIV reverse transcriptase
To be noted: 5'-triphosphate; according to Furman et al.; read-out: HIV RT K1; cited from earlier work.

Test [2] deals with T2, Host cell α-DNA pol (Homo sapiens, UniProt P09884).
T2 sequence (P09884 1-1462): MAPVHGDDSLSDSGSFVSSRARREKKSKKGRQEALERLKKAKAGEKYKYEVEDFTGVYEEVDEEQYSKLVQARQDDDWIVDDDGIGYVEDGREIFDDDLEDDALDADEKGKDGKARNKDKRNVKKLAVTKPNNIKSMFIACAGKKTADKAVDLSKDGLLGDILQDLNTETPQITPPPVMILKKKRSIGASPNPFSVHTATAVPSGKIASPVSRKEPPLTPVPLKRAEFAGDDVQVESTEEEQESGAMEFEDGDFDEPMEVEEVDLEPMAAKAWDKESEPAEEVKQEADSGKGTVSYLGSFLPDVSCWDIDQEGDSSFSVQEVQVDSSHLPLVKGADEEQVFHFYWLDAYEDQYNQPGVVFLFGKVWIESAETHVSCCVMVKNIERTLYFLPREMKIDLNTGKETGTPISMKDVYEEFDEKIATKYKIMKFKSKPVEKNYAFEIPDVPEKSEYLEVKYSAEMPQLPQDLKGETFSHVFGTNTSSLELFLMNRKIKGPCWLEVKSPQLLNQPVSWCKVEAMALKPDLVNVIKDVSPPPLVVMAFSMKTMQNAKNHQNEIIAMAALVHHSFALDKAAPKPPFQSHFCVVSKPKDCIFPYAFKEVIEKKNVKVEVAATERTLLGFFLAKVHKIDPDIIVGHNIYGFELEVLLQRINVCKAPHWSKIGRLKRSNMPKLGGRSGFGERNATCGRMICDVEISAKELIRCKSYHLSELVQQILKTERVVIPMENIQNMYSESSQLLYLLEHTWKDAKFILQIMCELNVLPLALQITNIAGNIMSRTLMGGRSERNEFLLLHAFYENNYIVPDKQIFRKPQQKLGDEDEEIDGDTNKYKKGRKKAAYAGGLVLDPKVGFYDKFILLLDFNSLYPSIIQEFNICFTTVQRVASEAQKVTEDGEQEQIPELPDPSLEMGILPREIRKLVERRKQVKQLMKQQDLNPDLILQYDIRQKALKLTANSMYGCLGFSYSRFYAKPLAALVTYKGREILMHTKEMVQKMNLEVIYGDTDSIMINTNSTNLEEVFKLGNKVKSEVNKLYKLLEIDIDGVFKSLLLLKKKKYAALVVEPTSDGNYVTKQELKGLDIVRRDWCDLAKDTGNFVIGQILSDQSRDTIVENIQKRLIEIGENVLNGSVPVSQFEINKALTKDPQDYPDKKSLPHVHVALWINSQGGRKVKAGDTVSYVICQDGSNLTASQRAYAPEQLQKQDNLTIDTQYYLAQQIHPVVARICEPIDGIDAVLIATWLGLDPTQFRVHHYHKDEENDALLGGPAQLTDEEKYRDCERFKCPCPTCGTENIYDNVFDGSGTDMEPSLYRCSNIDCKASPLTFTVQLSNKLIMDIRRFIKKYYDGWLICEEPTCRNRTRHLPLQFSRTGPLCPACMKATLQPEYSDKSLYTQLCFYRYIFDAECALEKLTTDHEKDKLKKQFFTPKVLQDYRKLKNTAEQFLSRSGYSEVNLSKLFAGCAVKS
The note with it: 5'-triphosphate; according to Furman et al.; read-out: Host cell α-DNA pol K1; cited from earlier work.

Test [3] has as its target T2, Host cell α-DNA pol. Put plainly: Effect of 5'-triphosphates on alpha DNA polymerase (Table 6). It is filed as biochemical. The note with it: K1 host cell α-DNA pol / K1 HIV RT.

As for `Cc1cn([C@H]2C[C@H](N=[N+]=[N-])[C@@H](CO[P@](=O)(O)O[P@](=O)(O)OP(=O)(O)O)O2)c(=O)[nH]c1=O` [AZT-TP], the results for the pKi in test [1] and in test [2] were 7.40 and 3.64, respectively. Further, in test [3], the “Ratio: Cellular/HIV” value is listed as 5,750.
